By IC50 is commonly meant the concentration at which inhibition is half-maximal. The term EC50 denotes the midpoint of the concentration-response curve.

These results are taken from ChEMBL document CHEMBL6153034, “Synthesis of dolutegravir derivatives modified by 1,2,3-triazole structure and their anti-inflammatory activity in LPS-induced BV2 cells” (Bioorg Med Chem Lett, 2025).

Some results are limits rather than exact numbers.

For one series, the system named is RAW264.7. Description: Antiinflammatory activity in LPS-induced mouse RAW264.7 cells assessed as inhibition of NO production. It counts as functional, cell-based.
Series [1] deals with Human immunodeficiency virus 1. As to the kind of experiment: Antiviral activity against HIV-1. It counts as functional, organism-based.
The nature of series [2]: Cytotoxicity against mouse BV-2 cells assessed as cell viability at 10 uM by MTT assay relative to control. It counts as toxicity, cell-based. To be noted: read-out: Activity. (Tetrazolium dyes change colour on reduction, which living cells bring about.)
Series [3] deals with BV-2. Description: Antiinflammatory activity in LPS induced mouse BV-2 cells assessed as inhibition of NO production by Griess reagent based assay. It counts as functional, cell-based. Background: Nitrite, measured by Griess reagent, commonly stands in for NO production.
Series [4] has as its system BV-2. As to the kind of experiment: Antiinflammatory activity in LPS induced mouse BV-2 cells assessed as NO production at 10 uM by Griess reagent based assay relative to control.
The nature of series [5]: Cytotoxicity against mouse BV-2 cells assessed as cell viability at 1 uM by MTT assay relative to control. The following applies: read-out: Activity. It counts as toxicity, cell-based.
The test system of series [6] is BV-2. As to the kind of experiment: Antiinflammatory activity in LPS induced mouse BV-2 cells assessed as NO production at 1 uM by Griess reagent based assay relative to control.
Series [7] concerns Human immunodeficiency virus 1. Description: Antiviral activity against HIV-1 infected in human C8166 cells assessed as inhibition of virus-induced cytopathic effect. It counts as functional, organism-based. The following applies: Human immunodeficiency virus 1, C8166. (In general: Damage to the host cells serves as the signal in cytopathic effect assays.)
Series [8] has as its system BV-2. Description: Antiinflammatory activity in LPS-induced mouse BV-2 cells assessed as reduction in NO release relative to control. It counts as functional. Details: scale not given: the % may be the effect or the level left.

In the case of `Cc1ccc([C@@](C)(O)CC[C@@H](O)C(C)(C)O)cc1`, the IC50 in the series with RAW264.7 is less than 10 µM. The EC50 in series [1] was less than 10 µM.
`COc1ccccc1-n1cc(-c2cccc(NC(=O)c3cn4c(c(OC)c3=O)C(=O)N3[C@H](C)CCO[C@H]3C4)c2)nn1`: in series [2], the viability at 10 µM turned out to be 76.8%. For the same compound, the IC50 in the series on BV-2 [3] was found to be 11 µM. Besides, the level, % of control at 10 µM in the series with BV-2 [4] was found to be 48.6%. Also, the viability at 1 µM in series [5] was found to be 109%. In the series on BV-2 [6], the level, % of control at 1 µM was determined as 76%.
`C=CC(C)(C)c1cc2cc([C@@H](O)[C@@H](O)C(C)(C)O)c(O)cc2oc1=O`: the IC50 in the series with RAW264.7 is less than 10 µM. In series [7], the EC50 is less than 10 µM.
As for `COc1c2n(cc(C(=O)Nc3cccc(-c4cn(-c5ccccc5F)nn4)c3)c1=O)C[C@H]1OC[C@H](C)N1C2=O`, in [2], the viability at 10 µM is 63.8%. Also, the level, % of control at 10 µM in the series with BV-2 [4] was determined as 88.7%. For the same compound, the viability at 1 µM in [5] was 91.9%. The level, % of control at 1 µM in the series on BV-2 [6] was determined as 97.9%.
Take `COc1ccccc1-n1cc(-c2ccccc2NC(=O)c2cn3c(c(OC)c2=O)C(=O)N2[C@H](C)CCO[C@H]2C3)nn1`: in series [2], the viability at 10 µM was found to be 93.5%. Moreover, in the series with BV-2 [4], the level, % of control at 10 µM came out at 70.3%. Further, in [5], the viability at 1 µM turned out to be 102%. Further, in the series with BV-2 [6], the level, % of control at 1 µM came to 87.1%.
The corresponding values for `COc1c2n(cc(C(=O)Nc3cccc(-c4cn(-c5ccc(C(F)(F)F)cc5)nn4)c3)c1=O)C[C@H]1OC[C@H](C)N1C2=O` are 63.3%, 101%, 108% and 102%.
As to `COc1c2n(cc(C(=O)Nc3cccc(-c4cn(-c5c(C)cc(C)cc5C)nn4)c3)c1=O)C[C@@H]1OCC[C@@H](C)N1C2=O`, the viability at 10 µM in series [2] was 96.7%. The IC50 in the series with BV-2 [3] amounted to 9.68 µM. The level, % of control at 10 µM in the series with BV-2 [4] turned out to be 46%. The viability at 1 µM in series [5] amounted to 102%. In addition, the level, % of control at 1 µM with BV-2 [6] is 85.1%.
With `COc1c2n(cc(C(=O)Nc3ccccc3-c3cn(-c4ccccc4I)nn3)c1=O)C[C@@H]1OCC[C@@H](C)N1C2=O`, the viability at 10 µM in series [2] turned out to be 65.8%. In addition, the level, % of control at 10 µM with BV-2 [4] came out at 56.3%. For the same compound, in [5], the viability at 1 µM was found to be 96.7%. Also, the level, % of control at 1 µM with BV-2 [6] was 107%.
Consider `COc1c2n(cc(C(=O)Nc3cccc(-c4cn(-c5ccccc5I)nn4)c3)c1=O)C[C@@H]1OCC[C@@H](C)N1C2=O`, for which, in series [2], the viability at 10 µM came to 89.2%. In addition, the half-inhibitory concentration (IC50) in the series on BV-2 [3] turned out to be 5.03 µM. Besides, the level, % of control at 10 µM in the series on BV-2 [4] was 52.1%. Moreover, the viability at 1 µM in series [5] was found to be 96.4%. Moreover, in the series on BV-2 [6], the level, % of control at 1 µM is 78.4%.
Consider `COc1c2n(cc(C(=O)Nc3cccc(-c4cn(-c5cc(C(F)(F)F)ccc5C(F)(F)F)nn4)c3)c1=O)C[C@@H]1OCC[C@@H](C)N1C2=O`, for which, in [2], the viability at 10 µM was 42%. Moreover, the level, % of control at 10 µM in the series with BV-2 [4] stood at 43.6%. Further, the viability at 1 µM in series [5] was found to be 104%. The level, % of control at 1 µM with BV-2 [6] stood at 80.8%.
Take `C[C@@H]1CCO[C@H]2Cn3cc(C(=O)NCc4ccc(F)cc4F)c(=O)c(O)c3C(=O)N12` [DOLUTEGRAVIR]: the viability at 10 µM in [2] stood at 77.6%. Besides, the level, % of control at 10 µM in the series with BV-2 [4] amounted to 51.2%. Further, the viability at 1 µM in [5] worked out at 97.5%. For the same compound, the level, % of control at 1 µM in the series with BV-2 [6] turned out to be 96%.
The corresponding values for `CCc1ccccc1-n1cc(-c2cccc(NC(=O)c3cn4c(c(OC)c3=O)C(=O)N3[C@@H](C)CO[C@@H]3C4)c2)nn1` are 46.1%, 102%, 99.3% and 107%.
Consider `CC(=O)Oc1ccc2c(=O)c(-c3ccc(-n4cc(-c5ccc6c(c5)C(=O)N5CCCC5C(=O)N6)nn4)cc3)coc2c1` (configuration not stated), for which the Activity in the series on BV-2 [8] came to 64.28%.
For `COc1c2n(cc(C(=O)Nc3cccc(-c4cn(-c5ccc(F)cc5)nn4)c3)c1=O)C[C@@H]1OCC[C@@H](C)N1C2=O`, the viability at 10 µM in series [2] was 69.2%. Also, the level, % of control at 10 µM in the series on BV-2 [4] was determined as 77%. Further, the viability at 1 µM in [5] came to 111%. For the same compound, the level, % of control at 1 µM with BV-2 [6] came to 76.6%.
Taken in the same sequence, the figures for `COc1c2n(cc(C(=O)Nc3cccc(-c4cn(-c5cc(C(F)(F)F)ccc5C(F)(F)F)nn4)c3)c1=O)C[C@H]1OC[C@H](C)N1C2=O` were 71.1%, 109%, 91.9% and 118%.
For `COc1c2n(cc(C(=O)Nc3ccc(-c4cn(-c5cc(C(F)(F)F)ccc5C(F)(F)F)nn4)cc3)c1=O)C[C@@H]1OCC[C@@H](C)N1C2=O`, in [2], the viability at 10 µM was found to be 109%. Moreover, the level, % of control at 10 µM in the series on BV-2 [4] stood at 69%. In series [5], the viability at 1 µM was 108%. Further, in the series with BV-2 [6], the level, % of control at 1 µM was found to be 83%.
Taken in the same sequence, the figures for `COc1c2n(cc(C(=O)Nc3cccc(-c4cn(-c5ccccc5C(F)(F)F)nn4)c3)c1=O)C[C@H]1OC[C@H](C)N1C2=O` were 42.9%, 82.3%, 97.4% and 103%.
Taken in the same sequence, the figures for `COc1c2n(cc(C(=O)Nc3cccc(-c4cn(-c5ccccc5C(F)(F)F)nn4)c3)c1=O)C[C@@H]1OCC[C@@H](C)N1C2=O` were 22.8%, 3.88%, 60.6% and 91.5%.
Taken in the same sequence, the figures for `COc1c2n(cc(C(=O)Nc3cccc(-c4cn(-c5ccccc5)nn4)c3)c1=O)C[C@@H]1OCC[C@@H](C)N1C2=O` were 62.3%, 77.3%, 104% and 78.6%.
